# In ChEMBL document CHEMBL3885861, “Open TG-GATES”:
# Species on record: Rattus norvegicus
# Assay: Open TG-GATES - Regimen: Single
# Type: toxicity, organism-based, Sprague-Dawley
# Set-up: regimen Single, gender Male, age 6 weeks
# Conditions: in vivo, po, route gavage; for TP / gamma-GTP / ALT / AST / BUN / CRE / DBIL / GLC / IP / K / LDH / RALB / TBIL / TC / ALP / PL: tissue Plasma; for APTT / Bas / Eos / Fbg / Ht / Lym / MCHC / MCV / Mono / PT / Plat / RBC / Ret / WBC: tissue Blood; for KIDNEY_L / KIDNEY_R / KIDNEY_TOTAL: tissue Kidney; for LIVER: tissue Liver
# [1] = 30 mg/kg, 3 h, dose level Middle
# [2] = 30 mg/kg, 6 h, dose level Middle
# [3] = 30 mg/kg, 9 h, dose level Middle
# [4] = 30 mg/kg, 24 h, dose level Middle
# [5] = 100 mg/kg, 3 h, dose level High
# [6] = 100 mg/kg, 6 h, dose level High
# [7] = 100 mg/kg, 9 h, dose level High
# [8] = 100 mg/kg, 24 h, dose level High
structure (smiles),measurement,setting,value
CN(C)CCCN1c2ccccc2CCc2ccccc21 [IMIPRAMINE],TP,"10 mg/kg, 24 h, dose level Low",5.4 g/dL
same,gamma-GTP,"10 mg/kg, 24 h, dose level Low",1 IU/L
same,TERMINAL_BW,[1],202.2 g
same,APTT,[1],16.3 s
same,Bas,[1],0.2%
same,Eos,[1],1%
same,Fbg,[1],313 mg/dL
same,Ht,[1],42.7%
same,Lym,[1],78.8%
same,MCHC,[1],32.4%
same,MCV,[1],65.8 fL
same,Mono,[1],3%
same,PT,[1],15.6 s
same,Plat,[1],106.2 x10_4/uL
same,RBC,[1],651.2 x10_4/ul
same,Ret,[1],8.1%
same,WBC,[1],75.9 x10_2/uL
same,KIDNEY_L,[1],0.9 g
same,KIDNEY_R,[1],0.9 g
same,KIDNEY_TOTAL,[1],1.8 g
same,LIVER,[1],9.5 g
same,ALT,[1],43.4 IU/L
same,AST,[1],70.2 IU/L
same,BUN,[1],7.8 mg/dL
same,CRE,[1],0.1 mg/dL
same,DBIL,[1],0.008 mg/dL
same,GLC,[1],191.6 mg/dL
same,IP,[1],9.1 mg/dL
same,K,[1],4 meq/L
same,LDH,[1],88.4 IU/L
same,RALB,[1],2.6 g/dL
same,TBIL,[1],0.058 mg/dL
same,TC,[1],79.2 mg/dL
same,TP,[1],5.6 g/dL
same,gamma-GTP,[1],1 IU/L
same,TERMINAL_BW,[2],198.5 g
same,APTT,[2],16.1 s
same,Bas,[2],0%
same,Eos,[2],1%
same,Fbg,[2],311.6 mg/dL
same,Ht,[2],41.9%
same,Lym,[2],72.6%
same,MCHC,[2],32.7%
same,MCV,[2],63.9 fL
same,Mono,[2],3.2%
same,PT,[2],15.7 s
same,Plat,[2],122.8 x10_4/uL
same,RBC,[2],656 x10_4/ul
same,Ret,[2],7.6%
same,WBC,[2],81.3 x10_2/uL
same,KIDNEY_L,[2],0.9 g
same,KIDNEY_R,[2],0.9 g
same,KIDNEY_TOTAL,[2],1.8 g
same,ALP,[2],1270.6 IU/L
same,ALT,[2],40.2 IU/L
same,AST,[2],72.8 IU/L
same,BUN,[2],6.2 mg/dL
same,CRE,[2],0.1 mg/dL
same,DBIL,[2],0.01 mg/dL
same,GLC,[2],177.4 mg/dL
same,IP,[2],9.8 mg/dL
same,K,[2],4.1 meq/L
same,LDH,[2],138.2 IU/L
same,RALB,[2],2.5 g/dL
same,TBIL,[2],0.062 mg/dL
same,TC,[2],81.2 mg/dL
same,TP,[2],5.4 g/dL
same,gamma-GTP,[2],1.4 IU/L
same,TERMINAL_BW,[3],197.4 g
same,APTT,[3],15.4 s
same,Bas,[3],0%
same,Eos,[3],1%
same,Fbg,[3],290.8 mg/dL
same,Ht,[3],42.1%
same,Lym,[3],78.4%
same,MCHC,[3],32.5%
same,MCV,[3],65.8 fL
same,Mono,[3],1.8%
same,PT,[3],15.8 s
same,Plat,[3],111.8 x10_4/uL
same,RBC,[3],639.4 x10_4/ul
same,Ret,[3],7.8%
same,WBC,[3],69.2 x10_2/uL
same,KIDNEY_L,[3],0.9 g
same,KIDNEY_R,[3],1 g
same,KIDNEY_TOTAL,[3],1.9 g
same,LIVER,[3],8.4 g
same,ALP,[3],1205.4 IU/L
same,ALT,[3],35.8 IU/L
same,AST,[3],65.2 IU/L
same,BUN,[3],5.8 mg/dL
same,CRE,[3],0.1 mg/dL
same,DBIL,[3],0.01 mg/dL
same,GLC,[3],191 mg/dL
same,IP,[3],9.6 mg/dL
same,K,[3],4.1 meq/L
same,LDH,[3],64.6 IU/L
same,PL,[3],131.2 mg/dL
same,RALB,[3],2.5 g/dL
same,TBIL,[3],0.06 mg/dL
same,TC,[3],68 mg/dL
same,TP,[3],5.3 g/dL
same,gamma-GTP,[3],0.8 IU/L
same,TERMINAL_BW,[4],209.9 g
same,APTT,[4],16.1 s
same,Bas,[4],0%
same,Eos,[4],1%
same,Fbg,[4],298.2 mg/dL
same,Ht,[4],41.7%
same,Lym,[4],82%
same,MCHC,[4],32.6%
same,MCV,[4],64.6 fL
same,Mono,[4],2.4%
same,PT,[4],16.5 s
same,Plat,[4],119.3 x10_4/uL
same,RBC,[4],644.8 x10_4/ul
same,Ret,[4],7.6%
same,WBC,[4],75.5 x10_2/uL
same,KIDNEY_L,[4],0.9 g
same,KIDNEY_R,[4],0.9 g
same,KIDNEY_TOTAL,[4],1.8 g
same,LIVER,[4],9.2 g
same,ALP,[4],1509.8 IU/L
same,ALT,[4],45.6 IU/L
same,AST,[4],69.6 IU/L
same,CRE,[4],0.2 mg/dL
same,GLC,[4],177 mg/dL
same,IP,[4],7.8 mg/dL
same,K,[4],4.2 meq/L
same,LDH,[4],101.8 IU/L
same,RALB,[4],2.7 g/dL
same,TBIL,[4],0.06 mg/dL
same,TC,[4],85.2 mg/dL
same,TP,[4],5.6 g/dL
same,gamma-GTP,[4],1 IU/L
same,TERMINAL_BW,[5],202.6 g
same,APTT,[5],16.3 s
same,Bas,[5],0%
same,Eos,[5],0.5%
same,Fbg,[5],283.8 mg/dL
same,Ht,[5],40.4%
same,Lym,[5],72.5%
same,MCHC,[5],32.8%
same,MCV,[5],63.6 fL
same,Mono,[5],3.2%
same,PT,[5],15.8 s
same,Plat,[5],110.1 x10_4/uL
same,RBC,[5],635.8 x10_4/ul
same,Ret,[5],8.6%
same,WBC,[5],79.2 x10_2/uL
same,KIDNEY_L,[5],0.9 g
same,KIDNEY_R,[5],0.9 g
same,KIDNEY_TOTAL,[5],1.8 g
same,LIVER,[5],9.4 g
same,ALP,[5],1336.2 IU/L
same,ALT,[5],45 IU/L
same,AST,[5],73.5 IU/L
same,BUN,[5],6.8 mg/dL
same,CRE,[5],0.1 mg/dL
same,DBIL,[5],0.0125 mg/dL
same,GLC,[5],190.8 mg/dL
same,IP,[5],10 mg/dL
same,K,[5],3.9 meq/L
same,LDH,[5],61 IU/L
same,PL,[5],138 mg/dL
same,RALB,[5],2.5 g/dL
same,TBIL,[5],0.07 mg/dL
same,TC,[5],69 mg/dL
same,TP,[5],5.3 g/dL
same,gamma-GTP,[5],1.2 IU/L
same,TERMINAL_BW,[6],200.3 g
same,APTT,[6],15.9 s
same,Bas,[6],0%
same,Eos,[6],0.8%
same,Fbg,[6],299.4 mg/dL
same,Ht,[6],42.4%
same,Lym,[6],71.2%
same,MCHC,[6],32.2%
same,MCV,[6],66.2 fL
same,Mono,[6],3%
same,PT,[6],15.8 s
same,Plat,[6],108.9 x10_4/uL
same,RBC,[6],641.6 x10_4/ul
same,Ret,[6],8.3%
same,WBC,[6],74.4 x10_2/uL
same,KIDNEY_L,[6],0.9 g
same,KIDNEY_R,[6],0.9 g
same,KIDNEY_TOTAL,[6],1.8 g
same,ALP,[6],1251.8 IU/L
same,ALT,[6],37 IU/L
same,AST,[6],64.2 IU/L
same,BUN,[6],6.4 mg/dL
same,CRE,[6],0.1 mg/dL
same,DBIL,[6],0.01 mg/dL
same,GLC,[6],182 mg/dL
same,IP,[6],9.9 mg/dL
same,K,[6],4 meq/L
same,LDH,[6],62.8 IU/L
same,RALB,[6],2.5 g/dL
same,TBIL,[6],0.062 mg/dL
same,TC,[6],83.8 mg/dL
same,TP,[6],5.4 g/dL
same,gamma-GTP,[6],1.2 IU/L
same,TERMINAL_BW,[7],199.8 g
same,APTT,[7],16.1 s
same,Bas,[7],0.2%
same,Eos,[7],0.8%
same,Fbg,[7],309.4 mg/dL
same,Ht,[7],42%
same,Lym,[7],73%
same,MCHC,[7],32.2%
same,MCV,[7],66.8 fL
same,Mono,[7],2.4%
same,PT,[7],15.8 s
same,Plat,[7],111.5 x10_4/uL
same,RBC,[7],629.2 x10_4/ul
same,Ret,[7],8.8%
same,WBC,[7],70.8 x10_2/uL
same,KIDNEY_L,[7],0.9 g
same,KIDNEY_R,[7],0.9 g
same,KIDNEY_TOTAL,[7],1.8 g
same,LIVER,[7],8.3 g
same,ALP,[7],1131.2 IU/L
same,ALT,[7],35.6 IU/L
same,AST,[7],63.6 IU/L
same,BUN,[7],5.2 mg/dL
same,CRE,[7],0.1 mg/dL
same,GLC,[7],179.2 mg/dL
same,IP,[7],10.2 mg/dL
same,K,[7],4.1 meq/L
same,LDH,[7],59.2 IU/L
same,RALB,[7],2.5 g/dL
same,TBIL,[7],0.056 mg/dL
same,TC,[7],80.8 mg/dL
same,TP,[7],5.4 g/dL
same,gamma-GTP,[7],1 IU/L
same,TERMINAL_BW,[8],198.2 g
same,APTT,[8],16 s
same,Bas,[8],0%
same,Eos,[8],0.6%
same,Fbg,[8],293.2 mg/dL
same,Ht,[8],42.6%
same,Lym,[8],82.6%
same,MCHC,[8],32.4%
same,MCV,[8],65.1 fL
same,Mono,[8],2%
same,PT,[8],16.6 s
same,Plat,[8],116.4 x10_4/uL
same,RBC,[8],655.2 x10_4/ul
same,Ret,[8],7.3%
same,WBC,[8],49 x10_2/uL
same,KIDNEY_L,[8],0.9 g
same,KIDNEY_R,[8],0.9 g
same,KIDNEY_TOTAL,[8],1.8 g
same,LIVER,[8],8.1 g
same,ALP,[8],1350.6 IU/L
same,ALT,[8],35.4 IU/L
same,AST,[8],61 IU/L
same,BUN,[8],12.8 mg/dL
same,CRE,[8],0.2 mg/dL
same,DBIL,[8],0.02 mg/dL
same,GLC,[8],176.4 mg/dL
same,IP,[8],8.2 mg/dL
same,K,[8],4.5 meq/L
same,LDH,[8],62.8 IU/L
same,PL,[8],137.8 mg/dL
same,RALB,[8],2.6 g/dL
same,TBIL,[8],0.062 mg/dL
same,TC,[8],83.2 mg/dL
same,TP,[8],5.6 g/dL
same,gamma-GTP,[8],1.2 IU/L
